The structures appear in SMILES notation.

The values that follow come from US12577213B2 (NINGBO COMBIREG PHARMACEUTICAL TECHNOLOGY CO., LTD., priority 2020, dated 2026).

The test system of series [1] is A549 (non-small cell lung cancer). Put plainly: NCI method SRB growth inhibition, A549. Type of series: cell-based. To be noted: Homo sapiens; A549, treated 48 hours, SRB stain. Put shortly: (§1)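 Readings normalised to time-zero (Tz) and 48 h vehicle (C) optical densities gave percent growth for each compound-treated well (Ti) after 48 h exposure, with SRB staining read at 515 nm. GI50 marks 50% growth, TGI zero net growth, and LC50 a 50% loss of cells.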
(In general: The SRB assay estimates cell density from bound dye.)

For the next series, the system named is 786-0 (renal cancer). Put plainly: NCI method SRB growth inhibition, 786-0. It is filed as cell-based. To be noted: Homo sapiens; 786-0, treated 48 hours, SRB stain. Put shortly:
as §1

The next series deals with HCT116 (colon cancer). Put plainly: NCI method SRB growth inhibition, HCT116. It is filed as cell-based. To be noted: Homo sapiens, HCT-116; HCT116, treated 48 hours, SRB stain. Put shortly:
as §1

A further series has as its system K562 (leukemia). As to the kind of experiment: NCI method SRB growth inhibition, K562. Type of series: cell-based. To be noted: Homo sapiens; K562, treated 48 hours, SRB stain. The essentials:
as §1

The next series has as its system PC-3 (prostate cancer). Put plainly: NCI method SRB growth inhibition, PC-3. Type of series: cell-based. The conditions noted are these: Homo sapiens; PC-3, treated 48 hours, SRB stain. Put shortly: as §1
For a further series, the system named is LOX-IMVI (melanoma). Put plainly: NCI method SRB growth inhibition, LOX-IMVI. Type of series: cell-based. The conditions noted are these: Homo sapiens, treated 48 hours, SRB stain. The essentials:
as §1

In series [2] the test system is SF295 (central nervous system tumor). Put plainly: NCI method SRB growth inhibition, SF295. Type of series: cell-based. The conditions noted are these: Homo sapiens, SF-295; SF295, treated 48 hours, SRB stain. The essentials:
as §1

The next series relates to OVCAR-3 (ovarian cancer). Put plainly: NCI method SRB growth inhibition, OVCAR-3. Type of series: cell-based. To be noted: Homo sapiens; OVCAR-3, treated 48 hours, SRB stain. Put shortly:
as §1

Series [3] relates to breast cancer cell line SUM159 sphere. Put plainly: Breast cancer stem cell sphere formation. Type of series: cell-based, human. To be noted: 50 nM; for formation of the sphere after cell passage: 5 days of drug treatment, then passage. Here is the method: The inhibitory effects of embodiment compounds 5, 7, 11, 13, 14, 20 and 21 on the formation of breast cancer cell line SUM159 sphere are described as follows.
The breast cancer cell line SUM159 sphere was cultured with serum-free medium in an ultra-low adsorption plate, the basal medium was DMEM/F12 (without phenol red), and B27 (without vitamin A) (1×), EGF (20 ng/ml), bFGF (20 ng/ml) and insulin (insulin, 5 ug/ml) were added.
An equal number (4000) of SUM159 cells per well were inoculated into an ultra-low adsorption 24 plate, and the sphere was photographed after 5 days of culture, replaced with fresh medium, and treated with drugs at certain concentrations, respectively. Compounds 5, 7, 11, 13, 14, 20 and 21 were evaluated in this experiment at 50 nM, respectively. The effect of the drug on the sphere phenotype could be observed after about 3 days of drug treatment. The sphere was photographed again after 5 days of drug treatment, and then the sphere was passaged. The sphere was photographed again after 7 days of passage.
The differences of the photographs taken in three different stages were counted and compared, and the killing effect of the tested compounds on SUM159 sphere was evaluated through the differences of sphere formation after passage, thus reflecting the inhibitory effects of different compounds on breast cancer stem cells.

The subject of another series is HS 578T (breast cancer). Put plainly: NCI method SRB growth inhibition, HS 578T. To be noted: Homo sapiens, HS578T, treated 48 hours, SRB stain. Type of series: cell-based. The essentials:
as §1

A short description of series [4]: Liver microsomes stability. To be noted: 1 μM compound, 1 mg/mL human liver microsomes, 1 mM NADPH; for half-life at 1 μM: human, human liver microsomes, read-out: T½ of HLM. It is filed as in vitro ADME, human. Put shortly:
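Compound at 1 μM final incubated with 1 mg/mL human liver microsomes and 1 mM NADPH (no-NADPH control), sampled at 0, 5, 15, 30, 60 min. Remaining parent quantified by LC-MS/MS; T1/2 = 0.693/k.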
(In general: Liver microsomes are a subcellular fraction often used to study metabolism.)

Consider `[2H]C([2H])([2H])Oc1cc(C(=O)Nc2cc3c(cc2Oc2cc(C)cc(C)c2)C(=O)N[C@@H](CC(=O)N(C([2H])([2H])[2H])C([2H])([2H])[2H])C(=O)N3)c(Br)c(OC([2H])([2H])[2H])c1OC([2H])([2H])[2H]` [Compound 21, (S)-2-bromo-N-[3-[2-[bis(trideuteromethyl)amino]-2-oxoethyl]-7-(3,5-dimethylphenoxy)-2,5-dioxo-2,3,4,5-tetrahydro-1H-benzo[e][1,4]diazepin-8-yl]-3,4,5-tris(trideuteromethoxy)benzamide], for which the GI50 in series [1] is 6.1 nM; in the series with 786-0 (renal cancer), 12.9 nM; in the series on HCT116 (colon cancer), under 5 nM; with K562 (leukemia), under 5 nM; in the series with PC-3 (prostate cancer), under 5 nM; in the series with LOX-IMVI (melanoma) it was under 5 nM. The 50% growth inhibitory concentration (GI50) is 11.3 nM in [2] and under 5 nM in the series on OVCAR-3 (ovarian cancer). For the same compound, in series [3], the “killing effect on SUM159 sphere” value was “strong killing effect”. Besides, the “formation of the sphere after cell passage” value (from here on “formation of the sphere”) in [3] is listed as “significantly reduced”.
As to `[2H]C([2H])([2H])C([2H])([2H])N(C(=O)C[C@@H]1NC(=O)c2cc(Oc3cc(C)cc(C)c3)c(NC(=O)c3cc(OC)c(OC)c(OC)c3Br)cc2NC1=O)C([2H])([2H])C([2H])([2H])[2H]` [Compound 7, (S)-2-bromo-N-[3-[2-[bis(pentadeuteroethyl)amino]-2-oxoethyl]-7-(3,5-dimethylphenoxy)-2,5-dioxo-2,3,4,5-tetrahydro-1H-benzo[e][1,4]diazepin-8-yl]-3,4,5-trimethoxybenzamide], the GI50 in series [1] was under 5 nM; in the series on 786-0 (renal cancer), 6.5 nM; in the series on HCT116 (colon cancer) it was under 5 nM; with PC-3 (prostate cancer), under 5 nM; in the series with LOX-IMVI (melanoma) it was under 5 nM; in series [2], under 5 nM. Moreover, the figures for the 50% growth inhibitory concentration (GI50) in the series with OVCAR-3 (ovarian cancer) and in the series with HS 578T (breast cancer) were under 5 nM and 8.2 nM, respectively. Further, the intrinsic clearance (microsomal CLint) at 1 μM in series [4] is 13.9 µL/min/mg. The half-life at 1 μM in series [4] was found to be 49.9 min. Further, the “killing effect on SUM159 sphere” value in series [3] is recorded as “strong killing effect”. Further, the “formation of the sphere” value in [3] was “significantly reduced”.
In the case of `[2H]C([2H])([2H])Oc1cc(C(=O)Nc2cc3c(cc2Oc2cc(C)cc(C)c2)C(=O)N(C)[C@@H](CC(=O)N(C([2H])([2H])[2H])C([2H])([2H])[2H])C(=O)N3)c(Br)c(OC([2H])([2H])[2H])c1OC([2H])([2H])[2H]` [Compound 14, (S)-2-bromo-N-[3-[2-[bis(trideuteromethyl)amino]-2-oxoethyl]-7-(3,5-dimethylphenoxy)-4-methyl-2,5-dioxo-2,3,4,5-tetrahydro-1H-benzo[e][1,4]diazepin-8-yl]-3,4,5-tris(trideuteromethoxy)benzamide], the concentration for 50% growth inhibition (GI50) is under 5 nM in series [1]; 5 nM in the series on 786-0 (renal cancer); under 5 nM in the series with HCT116 (colon cancer); under 5 nM with K562 (leukemia); under 5 nM with PC-3 (prostate cancer); under 5 nM in the series on LOX-IMVI (melanoma). For the same compound, the GI50 (in series [2]; in the series on OVCAR-3 (ovarian cancer)) was under 5 nM throughout. The compound also returned an intrinsic clearance (microsomal CLint) at 1 μM in [4] of 11.3 µL/min/mg. Besides, the half-life at 1 μM in series [4] is 61.3 min. Also, the “killing effect on SUM159 sphere” value in series [3] was “strong killing effect”. Also, in series [3], the “formation of the sphere” value is reported as “significantly reduced”.
Consider `[2H]C([2H])([2H])C([2H])([2H])N(C(=O)C[C@H]1C(=O)Nc2cc(NC(=O)c3cc(OC)c(OC)c(OC)c3Br)c(Oc3cc(C)cc(C)c3)cc2C(=O)N1C)C([2H])([2H])C([2H])([2H])[2H]` [Compound 11, (S)-2-bromo-N-[3-[2-[bis(pentadeuteroethyl)amino]-2-oxoethyl]-7-(3,5-dimethylphenoxy)-4-methyl-2,5-dioxo-2,3,4,5-tetrahydro-1H-benzo[e][1,4]diazepin-8-yl]-3,4,5-trimethoxybenzamide], for which the GI50 in series [1] is under 5 nM; in the series on 786-0 (renal cancer), 10.4 nM; with HCT116 (colon cancer) it was 15.7 nM; in the series on K562 (leukemia), under 5 nM; in the series with PC-3 (prostate cancer) it was under 5 nM; with LOX-IMVI (melanoma), under 5 nM. The values for the GI50 (in series [2]; in the series with OVCAR-3 (ovarian cancer); with HS 578T (breast cancer)) were 10.9 nM, under 5 nM and under 5 nM, respectively. In series [4], this compound showed an intrinsic metabolic clearance (microsomal CLint) at 1 μM of 28.2 µL/min/mg. For the same compound, the half-life at 1 μM in series [4] was 24.6 min. Moreover, the “killing effect on SUM159 sphere” value in series [3] was “strong killing effect”. The “formation of the sphere” value in series [3] is “significantly reduced”.
Take `[2H]C([2H])([2H])Oc1cc(C(=O)Nc2cc3c(cc2Oc2cc(C)cc(C)c2)C(=O)N(C)[C@@H](CC(=O)N(C([2H])([2H])C([2H])([2H])[2H])C([2H])([2H])C([2H])([2H])[2H])C(=O)N3)c(Br)c(OC([2H])([2H])[2H])c1OC([2H])([2H])[2H]` [Compound 13, (S)-2-bromo-N-[3-[2-[bis(pentadeuteroethyl)amino]-2-oxoethyl]-7-(3,5-dimethylphenoxy)-4-methyl-2,5-dioxo-2,3,4,5-tetrahydro-1H-benzo[e][1,4]diazepin-8-yl]-3,4,5-tris(trideuteromethoxy)benzamide]: the GI50 in [1] was under 5 nM; with 786-0 (renal cancer) it was 11.5 nM; in the series with HCT116 (colon cancer) it was under 5 nM; with K562 (leukemia), under 5 nM; in the series with PC-3 (prostate cancer) it was under 5 nM; in the series on LOX-IMVI (melanoma) it was under 5 nM. For the same compound, the GI50 in [2] is 7.5 nM; in the series with OVCAR-3 (ovarian cancer), under 5 nM; with HS 578T (breast cancer) it was under 5 nM. The compound also yielded an intrinsic metabolic clearance (microsomal CLint) at 1 μM in series [4] of 14.8 µL/min/mg. In addition, the half-life at 1 μM in series [4] was 46.8 min. The “killing effect on SUM159 sphere” value in series [3] is “strong killing effect”. The “formation of the sphere” value in [3] is on record as “significantly reduced”.
Take `[2H]C([2H])([2H])Oc1c(OC)cc(C(=O)Nc2cc3c(cc2Oc2cc(C)cc(C)c2)C(=O)N[C@@H](CC(=O)N(CC)CC)C(=O)N3)c(Cl)c1OC` [Compound 2, (S)-2-chloro-N-[3-[2-(diethylamino)-2-oxoethyl]-7-(3,5-dimethylphenoxy)-2,5-dioxo-2,3,4,5-tetrahydro-1H-benzo[e][1,4]diazepin-8-yl]-3,5-dimethoxy-4-(trideuteromethoxy)benzamide]: the GI50 in series [1] was 13.1 nM; with 786-0 (renal cancer), 11.8 nM; in the series on HCT116 (colon cancer), under 5 nM; with K562 (leukemia) it was under 5 nM; with PC-3 (prostate cancer), 5.5 nM; in the series with LOX-IMVI (melanoma), under 5 nM. Besides, the 50% growth inhibitory concentration (GI50) in series [2] worked out at 7.9 nM; with OVCAR-3 (ovarian cancer), 6.1 nM; in the series with HS 578T (breast cancer), 30.8 nM. The same compound displayed an intrinsic metabolic clearance (microsomal CLint) at 1 μM in series [4] of 32 µL/min/mg. Moreover, in [4], the half-life at 1 μM is 21.7 min.

Usually GI50 stands for the concentration at which growth is held to half of that of the control. A higher GI50 goes with less potent growth inhibition. Broadly, the microsomal CLint is a measure of how fast metabolising enzymes remove a compound, apart from limits set by blood flow.
